Paper PMC11110727, “Exploiting thiol-functionalized benzosiloxaboroles for achieving diverse substitution patterns – synthesis, characterization and biological evaluation of promising antibacterial agents” (RSC Medicinal Chemistry, 2024)
Values after ≈ are worked out from the molar mass of the structure shown.

Legend:
S. aureus ATCC 6538P = test: Antibacterial activity: MIC/MBC determination and disc-diffusion; assay type: cell-based, Staphylococcus aureus; conditions: S. aureus ATCC 6538P
Procedure: (§1) Direct antimicrobial activity was determined against the following standard strains: (1) Gram-positive cocci: methicillin-sensitive Staphylococcus aureus ATCC 6538P (MSSA), methicillin-resistant S. aureus subsp. aureus ATCC 43300 (MRSA), S. epidermidis ATCC 12228, Enterococcus faecium ATCC 6057, E. faecalis ATCC 29212, Bacillus subtilis ATCC 6633; (2) Gram-negative bacteria from Enterobacteriales order: Klebsiella pneumoniae ATCC 13883, Escherichia coli ATCC 25922, Enterobacter cloacae DSM 6234, Proteus mirabilis ATCC 12453, Serratia marcescens ATCC 13880; (3) Gram-negative non-fermentative rods: Acinetobacter baumannii ATCC 19606, Pseudomonas aeruginosa ATCC 27853, Stenotrophomonas maltophilia ATCC 12714, S. maltophilia ATCC 13637, Burkholderia cepacia ATCC 25416, Bordetella bronchiseptica ATCC 4617; (4) yeasts: Candida albicans ATCC 90028, C. krusei ATCC 6258, C. parapsilosis ATCC 22019, C. tropicalis (Castellani) Berkhout ATCC 750, C. tropicalis IBA 171, C. guilliermondii IBA 155, and Saccharomyces cerevisiae ATCC 9763. Moreover, 5 clinical strains of methicillin-resistant S. aureus were also included: NMI 664 K, NMI 1576 K, NMI 1712 K, NMI 1991 K, and NMI 2541 K. All strains were stored at −80 °C. Prior to testing, each bacterial strain was subcultured twice on tryptic soy agar TSA (bioMerieux) medium and yeast strains on Sabouraud dextrose agar (bioMerieux) for 24–48 h at 30 °C to ensure viability. The antimicrobial activity was evaluated as previously described[26] by the disc-diffusion method and the MIC determination assays according to the EUCAST (ref. [71] and [72]) and CLSI (ref. [53] and [73]) recommendations. Assessment of bactericidal (MBC) and fungicidal (MFC) activities was performed according to the CLSI recommendations.[54,74] The following reference agents were used: fluconazole (in the case of fungi), linezolid (for Gram-positive bacteria), and nitrofurantoin (for Gram-negative rods). The new benzosiloxaboroles were dissolved in DMSO (Sigma).

E. faecalis ATCC 29212 = test: as above; assay type: cell-based; conditions: Enterococcus faecalis, ATCC29212, E. faecalis ATCC 29212
Procedure: as §1

E. faecium ATCC 6057 = test: as above; assay type: cell-based; conditions: Enterococcus faecium, ATCC6057, E. faecium ATCC 6057
Procedure: as §1

[1] = system: S. aureus ATCC 43300 MRSA; test: as above; assay type: cell-based; conditions: Staphylococcus aureus, S. aureus ATCC 43300 MRSA
Procedure: as §1

[2] = system: S. epidermidis ATCC 12228; test: as above; assay type: cell-based; conditions: Staphylococcus epidermidis, ATCC12228, S. epidermidis ATCC 12228
Procedure: as §1

[3] = system: S. aureus NMI 1576 K MRSA; test: Antibacterial activity against clinical MRSA: MIC/MBC; assay type: cell-based; conditions: Staphylococcus aureus, NMI 1576 K MRSA
Procedure: as §1

[4] = system: S. aureus NMI 1712 K MRSA; test: as above; assay type: cell-based; conditions: Staphylococcus aureus, NMI 1712 K MRSA
Procedure: as §1

[5] = system: S. aureus NMI 1991 K MRSA; test: as above; assay type: cell-based; conditions: Staphylococcus aureus, NMI 1991 K MRSA
Procedure: as §1

[6] = system: S. aureus NMI 2541 K MRSA; test: as above; assay type: cell-based; conditions: Staphylococcus aureus, NMI 2541 K MRSA
Procedure: as §1

S. aureus NMI 664 K MRSA = test: as above; assay type: cell-based; conditions: Staphylococcus aureus, NMI 664 K MRSA
Procedure: as §1

[7] = system: Human normal lung fibroblasts MRC-5; test: MTT-based viability (cytotoxicity) assay; conditions: Homo sapiens, MRC5, 48 h
Procedure: To evaluate the cytotoxic effect of the tested compounds, an MTT-based assay was performed. […] Moreover, based on available IC50 and MIC (for standard and clinical S. aureus MRSA strains) values, the selectivity index (SI) was calculated for several compounds as the IC50/MIC ratio (Table 5).[60]
MRC-5 pd30 human fibroblasts (ECACC) were cultured in MEME, Minimum Essential Medium Eagle (Merck), supplemented with 10% fetal bovine serum (Merck), 2 mM L-glutamine, antibiotics (100 U mL^−1 penicillin, 100 μg mL^−1 streptomycin, Merck) and 1% non-essential amino acids (Merck). Cells were grown in 75 cm^2 cell culture flasks (Sarstedt), in a humidified atmosphere of CO2/air (5/95%) at 37 °C. MTT-based viability assay was conducted as described previously.[26] Optical densities were measured at 570 nm using a BioTek microplate reader. All measurements were carried out in three replicates and the results expressed as a percent of viable cells versus control cells. […] The selectivity index (SI) was calculated as [drawing 30] , in accordance with previously described protocols.[60]

S. aureus MRSA LeuRS = molecular target: T1, S. aureus MRSA LeuRS (Staphylococcus aureus, UniProt P67513); test: In vitro aminoacylation (enzyme inhibition) assay; assay type: biochemical; conditions: read-out: residual activity of S. aureus MRSA LeuRS
T1 construct: The LeuRS gene from MRSA (PW-71) was amplified by PCR; made in house; host or cells: E. coli BL21(DE3)pLys
Procedure: We have undertaken research devoted to determining the most probable mechanism of antibacterial action. […] Considering structural similarity to benzoxaboroles we assumed that benzosiloxaboroles are active through this mechanism. Our working hypothesis was supported by the fact that benzosiloxaboroles are rather bacteriostatic than bactericidal,[26,27] which is consistent with the specificity of the OBORT mechanism. The enzyme inhibition assay was performed for compound 20 as it features high activity against S. aureus MRSA strains and the respective favorable SI = 19.5 (Table 5). […] We obtained S. aureus MRSA LeuRS in the E. coli expression system. From 400 mL culture, approximately 20 mg of 6× His tagged LeuRS (with a molecular mass of 92.3 kDa) was purified to more than 90% homogeneity, which was confirmed by sodium dodecylsulfate-polyacrylamide gel electrophoresis (SDS-PAGE; Fig. S2, ESI ^†). Next, we used an in vitro aminoacylation assay to investigate the ability of 20 to inhibit S. aureus MRSA LeuRS activity consistent with affecting the transfer of the ^14C-radiolabeled leucine to a total tRNA. […] (residual activity 30.8% at 25 μM).
The LeuRS gene from MRSA (PW-71) was amplified by PCR using the following primers: 5′-[…]-3′ and 5′-[…]-3′. The amplified leuRS was digested with BamHI and NotI and ligated into pETDuet-1 vector (Novagen) which carries an N-terminal His tag. After sequencing, the pETDuet1-leuRS plasmid was transformed into E. coli BL21(DE3)pLys cells, which were then grown overnight in 20 mL of Luria–Bertani (LB) medium containing 100 μg mL^−1 ampicillin and 30 μg mL^−1 chloramphenicol. Then the overnight culture was inoculated into 400 mL of Super Broth medium containing ampicillin and chloramphenicol at the same concentration, and the cells were grown until the OD600 reached 0.6. […] The protein concentration in the final solution was 2.86 mg mL^−1 (determined by the Bradford method and bovine serum albumin as a standard).[78] […]

[8] = read-out: MBC (first MBC where Eagle effect)

T1 sequence (P67513 whole entry): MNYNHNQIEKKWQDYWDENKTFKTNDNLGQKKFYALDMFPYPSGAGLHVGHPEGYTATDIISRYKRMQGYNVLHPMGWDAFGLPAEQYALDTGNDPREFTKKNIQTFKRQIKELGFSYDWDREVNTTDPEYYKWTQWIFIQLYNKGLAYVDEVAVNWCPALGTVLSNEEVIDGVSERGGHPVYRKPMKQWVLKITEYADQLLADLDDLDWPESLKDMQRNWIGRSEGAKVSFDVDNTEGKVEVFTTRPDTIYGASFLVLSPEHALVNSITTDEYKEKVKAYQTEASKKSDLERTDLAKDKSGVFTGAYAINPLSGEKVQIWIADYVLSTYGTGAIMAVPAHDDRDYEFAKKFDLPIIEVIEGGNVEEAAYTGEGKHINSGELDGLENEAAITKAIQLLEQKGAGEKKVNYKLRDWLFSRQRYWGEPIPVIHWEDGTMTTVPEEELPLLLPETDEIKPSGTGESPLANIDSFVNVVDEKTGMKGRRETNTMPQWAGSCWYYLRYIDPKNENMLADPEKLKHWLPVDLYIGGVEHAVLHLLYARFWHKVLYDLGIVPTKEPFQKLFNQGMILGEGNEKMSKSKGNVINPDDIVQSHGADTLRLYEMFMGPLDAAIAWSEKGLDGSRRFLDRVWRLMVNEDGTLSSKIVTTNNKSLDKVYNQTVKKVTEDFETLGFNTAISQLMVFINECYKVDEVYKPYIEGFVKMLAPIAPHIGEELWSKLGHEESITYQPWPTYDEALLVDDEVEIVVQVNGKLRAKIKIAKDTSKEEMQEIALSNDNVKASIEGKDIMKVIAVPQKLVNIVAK

## CC(=O)NC[C@H]1CN(c2ccc(N3CCOCC3)c(F)c2)C(=O)O1 [LIN, linezolid, reference compound]
S. aureus ATCC 6538P; disc-diffusion, — = zone not observed
  diameter of inhibition zone: 25 mm
S. aureus ATCC 6538P; Staphylococcus aureus, ATCC6538P, read-out: MBC (first MBC where Eagle effect)
  MBC: > 128 µg/mL
S. aureus ATCC 6538P; Staphylococcus aureus, ATCC6538P, read-out: MIC
  MIC: 1 µg/mL (≈ 2.96 µM)
E. faecalis ATCC 29212
  MBC: > 128 µg/mL
E. faecalis ATCC 29212; read-out: MIC
  MIC: 2 µg/mL (≈ 5.93 µM)
E. faecium ATCC 6057
  MBC: > 128 µg/mL
E. faecium ATCC 6057; read-out: MIC
  MIC: 2 µg/mL (≈ 5.93 µM)
[1]; [8]
  MBC: > 128 µg/mL
[1]; read-out: MIC
  MIC: 2 µg/mL (≈ 5.93 µM)
[2]
  MBC: > 128 µg/mL
[2]; read-out: MIC
  MIC: 1 µg/mL (≈ 2.96 µM)
[3]; [8]
  MBC: > 128 µg/mL
[3]; read-out: MIC
  MIC: 1 µg/mL (≈ 2.96 µM)
[4]; [8]
  MBC: > 128 µg/mL
[4]; read-out: MIC
  MIC: 1 µg/mL (≈ 2.96 µM)
[5]; [8]
  MBC: > 128 µg/mL
[5]; read-out: MIC
  MIC: 1 µg/mL (≈ 2.96 µM)
[6]; [8]
  MBC: > 128 µg/mL
[6]; read-out: MIC
  MIC: 1 µg/mL (≈ 2.96 µM)
S. aureus NMI 664 K MRSA; [8]
  MBC: > 128 µg/mL
S. aureus NMI 664 K MRSA; read-out: MIC
  MIC: 1 µg/mL (≈ 2.96 µM)
[7]
  IC50: > 400 µg/mL

## Nc1ccc(S(=O)(=O)Nc2ccc3c(c2)B(O)OC3)cc1 [PT662, reference compound]
S. aureus MRSA LeuRS
  remaining activity at 25 µM: 30.8%
